Results reported in patent US11324832B2, “Tripartite modulators of endosomal G protein-coupled receptors” (Endosome Therapeutics, Inc., priority 2015, dated 2022).
Where a SMILES comes first, the peptide text is derived from it. [ ]: non-standard residue; d: D form. The star is where a group is joined. X1 = CC(C)CCC[C@@H](C)[C@H]1CC[C@H]2[C@@H]3CC[C@H]4C[C@@H](O*)CC[C@]4(C)[C@H]3CC[C@]12C; NMeL = CN[C@@H](CC(C)C)C(=O)O; PEG4 = NCCOCCOCCOCCOCCC(=O)O; PEG3 = NCCOCCOCCOCCC(=O)O; Ava = NCCCCC(=O)O

How the values were obtained:
[1] = molecular target: T1, NK1R (Rattus norvegicus, UniProt P14600); assay: BRET between NK1R-RLuc8 and βarr1/2-YFP in HEK293 cells; type: cell-based; set-up: Full length and truncated 6312 rat HA-NK1R have been described; expressed in transfected cells; host or cells: HEK293 (transient); conditions: agonist alone
T1 sequence (P14600 whole entry, the tested form may be a part): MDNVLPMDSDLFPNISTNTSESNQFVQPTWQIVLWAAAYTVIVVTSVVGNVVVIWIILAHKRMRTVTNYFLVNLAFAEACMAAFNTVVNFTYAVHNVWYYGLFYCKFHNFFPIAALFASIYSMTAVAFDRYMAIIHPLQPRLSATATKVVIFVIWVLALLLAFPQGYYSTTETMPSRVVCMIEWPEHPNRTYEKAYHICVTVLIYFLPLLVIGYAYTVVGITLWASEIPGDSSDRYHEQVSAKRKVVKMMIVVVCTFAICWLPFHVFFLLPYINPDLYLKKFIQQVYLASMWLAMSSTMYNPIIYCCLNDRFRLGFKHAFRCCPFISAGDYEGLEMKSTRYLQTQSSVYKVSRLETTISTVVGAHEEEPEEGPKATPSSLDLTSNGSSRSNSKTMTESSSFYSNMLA
Experimental: Bioluminescence Resonance Energy Transfer (BRET) was employed to quantitatively assess the proximity of the NK1R to key regulators of GPCR trafficking (βarrs), and resident proteins of plasma (KRas) and early endosomal (Rab5a) membranes in HEK293 cells (FIG. 1A).
HEK293 cells were transfected with the following cDNAs: 1 μg NK1R-RLuc8 or 1 μg CLR-RLuc8+1 μg Myc-RAMP1+4 μg KRas-Venus, 4 μg Rab5a-Venus, 4 μg βarr1-YFP, or 4 μg βarr2-YFP; or 1 μg NK1R+0.5 μg Gαq-RLuc8+1 μg Gβ1+4 μg Gγ2-Venus; or 1 μg NK1R+0.5 μg Gαq-RLuc8+1 μg Gβ1+1 μg Gγ2+4 μg Rab5a-Venus. After 48 h, cells were equilibrated in Hank's balanced salt solution (HBSS) at 37° C., and incubated with the RLuc substrate coelenterazine h (5 μM, 15 min).

[2] = molecular target: T1, NK1R; assay: Calcium mobilization assay, agonist mode, HEK293 cells expressing NK1R; type: cell-based; set-up: Full length and truncated 6312 rat HA-NK1R have been described; expressed in transfected cells; host or cells: HEK293
Excerpt: GR73632 was conjugated to cholestanol (Compound 3) or ethyl ester (GR73632-ethyl ester) via a flexible PEG linker. The effect of these compounds in HEK293 cells expressing NK1R was then studied.

[3] = molecular target: T1, NK1R; assay: FRET biosensors of compartmentalized signaling (ERK, PKC, cAMP) in NK1R-expressing HEK293 cells; type: cell-based; set-up: Full length and truncated 6312 rat HA-NK1R have been described; expressed in transfected cells; host or cells: HEK293 (transient); conditions: agonist alone, imaged over 20 min
Experimental: To study the link between NK1R trafficking and signaling, the NK1R and Förster Resonance Energy Transfer (FRET) biosensors targeted to detect activated ERK in the cytosol (CytoEKAR) or nucleus (NucEKAR, FIG. 2A), activated PKC at the plasma membrane (pmCKAR) or in the cytosol (CytoCKAR, FIG. 2C), and cAMP at the plasma membrane (pmEpac2) or in the cytosol (CytoEpac2, FIG. 2E) were expressed in HEK293 cells.
HEK293 cells were transfected with 55 ng/well rat NK1R with N-terminal HA. 11 epitope tag (HA-NK1R) or CLR plus RAMP1 and 40 ng/well FRET biosensors. FRET was assessed 48 h after transfection, following serum restriction (0.5% FBS overnight). For experiments using clathrin or dynamin siRNA, cells were transfected with 55 ng/well rat HA-NK1R, 40 ng/well FRET biosensor and 25 nM/well scrambled, clathrin or dynamin ON-TARGETplus SMARTpool siRNA (GE Dharmacon). FRET was assessed 72 h after transfection, following serum restriction (0.5% FBS overnight). Cells were equilibrated in HBSS at 37° C. and FRET was analyzed using a GE Healthcare INCell 2000 Analyzer. For GFP/RFP emission ratio analysis, cells were sequentially excited using a FITC filter (490/20) with emission measured using dsRed (605/52) and FITC (525/36) filters, and a polychroic optimized for the FITC/dsRed filter pair (Quad4). For CFP/YFP emission ratio analysis, cells were sequentially excited using a CFP filter (430/24) with emission measured using YFP (535/30) and CFP (470/24) filters, and a polychroic optimized for the CFP/YFP filter pair (Quad3). Cells were imaged every 1 min, allowing image capture of 14 wells per minute. Baseline emission ratio images were captured for 4 min. […] Cells were then stimulated with the positive control (200 nM phorbol 12,13-dibutyrate for ERK; 200 nM phorbol 12,13-dibutyrate with phosphatase inhibitor cocktail for PKC; 10 μM forskolin, 100 μM 3-isobutyl-1-methylxanthine, 100 nM PGE1 for cAMP) for 10 min to generate a maximal increase, and positive emission ratio images were captured for 4 min. Data were analyzed as described and expressed as emission ratios relative to baseline for each cell (F/F0). Cells with >10% change in F/F0 after stimulation with positive controls were selected for analysis.

[4] = molecular target: T2, endothelin converting enzyme 1 (Homo sapiens, UniProt P42892); conditions: cited from earlier work
T2 sequence (P42892 1-770): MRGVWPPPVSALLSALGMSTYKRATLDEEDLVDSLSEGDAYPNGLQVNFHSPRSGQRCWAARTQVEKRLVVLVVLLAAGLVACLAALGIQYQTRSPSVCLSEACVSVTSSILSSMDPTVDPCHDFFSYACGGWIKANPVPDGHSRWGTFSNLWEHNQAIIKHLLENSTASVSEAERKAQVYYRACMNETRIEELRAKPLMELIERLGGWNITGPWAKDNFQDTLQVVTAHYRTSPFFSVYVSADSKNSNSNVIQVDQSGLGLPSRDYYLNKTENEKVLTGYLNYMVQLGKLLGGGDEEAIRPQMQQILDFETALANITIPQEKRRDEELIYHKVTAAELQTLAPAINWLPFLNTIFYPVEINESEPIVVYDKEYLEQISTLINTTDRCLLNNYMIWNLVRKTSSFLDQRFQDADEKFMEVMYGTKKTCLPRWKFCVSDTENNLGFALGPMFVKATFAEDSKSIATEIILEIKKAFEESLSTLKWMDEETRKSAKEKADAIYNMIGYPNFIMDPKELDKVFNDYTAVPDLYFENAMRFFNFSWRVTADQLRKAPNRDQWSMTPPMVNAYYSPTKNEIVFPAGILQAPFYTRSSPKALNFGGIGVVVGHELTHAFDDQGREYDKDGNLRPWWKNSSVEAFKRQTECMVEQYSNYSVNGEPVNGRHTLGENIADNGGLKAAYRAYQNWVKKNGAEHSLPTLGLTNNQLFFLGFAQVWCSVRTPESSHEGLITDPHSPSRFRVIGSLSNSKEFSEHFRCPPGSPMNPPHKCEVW

SMILES	recruitment of βarrs (BRET NK1R-RLuc8 / βarr1-YFP, βarr2-YFP) [1]	decrease in potency compared to the free agonist ([2]; calcium mobilization) [fold]	cytosolic ERK activation (FRET CytoEKAR) [3]	nuclear ERK activation (FRET NucEKAR) [3]	EC50 ([2]; HEK293 cells expressing NK1R, given as logEC50 (negative)) [pM]	susceptibility to cleavage by endothelin converting enzyme 1 [4]
CSCC[C@H](NC(=O)[C@H](CC(C)C)N(C)C(=O)[C@@H]1CCCN1C(=O)[C@H](Cc1ccccc1)NC(=O)[C@H](Cc1ccccc1)NC(=O)CCCCNC(=O)CCOCCOCCOCCOCCNC(=O)CCOCCOCCOCCNC(=O)CCOCCOCCOCCOCCNC(=O)[C@H](CC(=O)O[C@H]1CC[C@@]2(C)[C@@H](CC[C@@H]3[C@@H]2CC[C@]2(C)[C@@H]([C@H](C)CCCC(C)C)CC[C@@H]32)C1)NC(C)=O)C(N)=O [Compound 3] (Ac-D(X1)[PEG4][PEG3][PEG4][Ava]FFP[NMeL]M-NH2)	does not induce recruitment of βarrs	~100	no cytosolic ERK	stimulates sustained nuclear ERK phosphorylation	–	–
CSCC[C@H](NC(=O)[C@H](CC(C)C)N(C)C(=O)[C@@H]1CCCN1C(=O)[C@H](Cc1ccccc1)NC(=O)[C@H](Cc1ccccc1)NC(=O)CCCCN)C(N)=O [GR73632, Ava-Phe-Phe-Pro-N-MeLeu-Met-NH2] (H-[Ava]FFP[NMeL]M-NH2)	–	–	stimulated sustained cytosolic and nuclear ERK phosphorylation	stimulated sustained cytosolic and nuclear ERK phosphorylation	933	not susceptible to cleavage
